# From PubChem BioAssay (NCI)
#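 Test compounds were applied to cells in 96-well plates for 48 hours at 5 doses. Abbreviation: GI50, concentration required for 50% inhibition of growth. TGI denotes the concentration required for complete inhibition of growth.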
# What was measured:
# Experiment in all cases: NCI anticancer screen, dose series, 48 h
# [1] = system: A549 NSCLC
# [2] = system: MALME-3M melanoma
# [3] = system: HL-60(TB) leukemia
# [4] = system: MDA-MB-231 breast
# [5] = system: OVCAR-3 ovarian
# [6] = system: SF-268 CNS
# [7] = system: SF-295 CNS
# [8] = system: HOP-92 NSCLC
# [9] = system: SNB-75 CNS
# [10] = system: 786-0 renal
# [11] = system: MDA-MB-468 breast
# [12] = system: HCC-2998 colon
# [13] = system: IGROV1 ovarian
# [14] = system: PC-3 prostate
# [15] = system: A498 renal
# [16] = system: ACHN renal
# [17] = system: KM12 colon
# [18] = system: SW-620 colon
# [19] = system: MDA-MB-435
# [20] = system: MOLT-4 leukemia
# [21] = system: MCF7 breast
# [22] = system: NCI-H460 lung
# [23] = system: NCI-H522 lung
# [24] = system: OVCAR-4 ovarian
# [25] = system: LOX IMVI melanoma
# [26] = system: SK-MEL-2 melanoma
# [27] = system: HCT-116 colon
# [28] = system: SK-MEL-5 melanoma
# [29] = system: SN12C renal
# [30] = system: HCT-15 colon
# [31] = system: OVCAR-8 ovarian
# [32] = system: UO-31 renal
# [33] = system: NCI/ADR-RES ovarian
# [34] = system: BT-549 breast
# [35] = system: T-47D breast
# [36] = system: CCRF-CEM leukemia
# [37] = system: U251 CNS
# [38] = system: SK-MEL-28 melanoma
# [39] = system: NCI-H226 lung
# [40] = system: UACC-257 melanoma
# [41] = system: SF-539 CNS
# [42] = system: K-562 leukemia
# [43] = system: OVCAR-5 ovarian
# [44] = system: DU-145 prostate
# [45] = system: RXF 393 renal
# [46] = system: SR leukemia
# [47] = system: HS 578T breast
# [48] = system: RPMI-8226 leukemia
# [49] = system: TK-10 renal
# [50] = system: CAKI-1 renal
# [51] = system: UACC-62 melanoma
# [52] = system: SNB-19 CNS
# [53] = system: HOP-62 NSCLC
# [54] = system: NCI-H23 lung
# [55] = system: HT29 colon
# [56] = system: M14 melanoma
# [57] = system: EKVX NSCLC
# [58] = system: COLO 205 colon
# [59] = system: SK-OV-3 ovarian
compound,measurement,setting,value
O=C(Cn1c(-c2ccccc2)nc2ccccc21)N=Nc1c(O)[nH]c2ccc(Br)cc12,GI50,[1],14.7 µM
same,TGI,[1],34.8 µM
same,GI50,[2],12.3 µM
same,TGI,[2],27.1 µM
same,GI50,[3],25.5 µM
same,TGI,[3],> 100 µM
same,GI50,[4],12 µM
same,TGI,[4],27.9 µM
same,GI50,[5],14.3 µM
same,TGI,[5],30.3 µM
same,GI50,[6],16.2 µM
same,TGI,[6],38.3 µM
same,GI50,[7],12.7 µM
same,TGI,[7],28 µM
same,GI50,[8],15.4 µM
same,TGI,[8],34.2 µM
same,GI50,[9],9.46 µM
same,TGI,[9],23.6 µM
same,GI50,[10],17.5 µM
same,TGI,[10],34.7 µM
same,GI50,[11],2.54 µM
same,TGI,[11],9.55 µM
same,GI50,[12],14.8 µM
same,TGI,[12],31.3 µM
same,GI50,[13],12 µM
same,TGI,[13],29.7 µM
same,GI50,[14],15 µM
same,TGI,[14],43.2 µM
same,GI50,[15],16 µM
same,TGI,[15],31.1 µM
same,GI50,[16],15.6 µM
same,TGI,[16],34.1 µM
same,GI50,[17],14.8 µM
same,TGI,[17],52.9 µM
same,GI50,[18],18.1 µM
same,TGI,[18],52.9 µM
same,GI50,[19],5.9 µM
same,TGI,[19],21.3 µM
same,GI50,[20],17.6 µM
same,TGI,[20],> 100 µM
same,GI50,[21],5.87 µM
same,TGI,[21],25.6 µM
same,GI50,[22],16.8 µM
same,TGI,[22],35 µM
same,GI50,[23],7.31 µM
same,TGI,[23],22.4 µM
same,GI50,[24],15.9 µM
same,TGI,[24],36.5 µM
same,GI50,[25],15 µM
same,TGI,[25],31.7 µM
same,GI50,[26],17 µM
same,TGI,[26],42.9 µM
same,GI50,[27],18.2 µM
same,TGI,[27],45.8 µM
same,GI50,[28],13.9 µM
same,TGI,[28],30.9 µM
same,GI50,[29],16.2 µM
same,TGI,[29],41.8 µM
same,GI50,[30],12 µM
same,TGI,[30],38.9 µM
same,GI50,[31],14.4 µM
same,TGI,[31],31.1 µM
same,GI50,[32],10 µM
same,TGI,[32],26.8 µM
same,GI50,[33],15.4 µM
same,TGI,[33],33.8 µM
same,GI50,[34],16 µM
same,TGI,[34],36.9 µM
same,GI50,[35],11.5 µM
same,TGI,[35],33.8 µM
same,GI50,[36],34.8 µM
same,TGI,[36],> 100 µM
same,GI50,[37],16.2 µM
same,TGI,[37],31.7 µM
same,GI50,[38],17.8 µM
same,TGI,[38],36.7 µM
same,GI50,[39],11.1 µM
same,TGI,[39],28.3 µM
same,GI50,[40],15.2 µM
same,TGI,[40],31.7 µM
same,GI50,[41],14.4 µM
same,TGI,[41],29.7 µM
same,GI50,[42],9.48 µM
same,TGI,[42],> 100 µM
same,GI50,[43],22.9 µM
same,TGI,[43],81.4 µM
same,GI50,[44],19.6 µM
same,TGI,[44],42.3 µM
same,GI50,[45],10.3 µM
same,TGI,[45],23.9 µM
same,GI50,[46],6.04 µM
same,TGI,[46],> 100 µM
same,GI50,[47],14.9 µM
same,TGI,[47],47.3 µM
same,GI50,[48],35.6 µM
same,TGI,[48],> 100 µM
same,GI50,[49],21 µM
same,TGI,[49],40.3 µM
same,GI50,[50],11.8 µM
same,TGI,[50],25.7 µM
same,GI50,[51],12.1 µM
same,TGI,[51],25.9 µM
same,GI50,[52],17.3 µM
same,TGI,[52],40.8 µM
same,GI50,[53],14.6 µM
same,TGI,[53],33 µM
same,GI50,[54],16.3 µM
same,TGI,[54],36.5 µM
same,GI50,[55],14.3 µM
same,TGI,[55],30.4 µM
same,GI50,[56],18.8 µM
same,TGI,[56],52.3 µM
same,GI50,[57],11.3 µM
same,TGI,[57],34.1 µM
same,GI50,[58],18.9 µM
same,TGI,[58],46.2 µM
same,GI50,[59],16.6 µM
same,TGI,[59],38.4 µM
